These results are taken from ChEMBL document CHEMBL5042504 (J Med Chem, 2022).

The subject of data set [1] is MV4-11. Briefly: cells. The following applies: Homo sapiens, MV4-11, 48 h.
Description: Antiproliferative activity against human MV4-11 AML cells assessed as cell viability measured after 48 hrs by multiplate reader method
The target in data set [2] is T1, Histone deacetylase 1 (Homo sapiens, UniProt Q13547). The data set is described as follows: Inhibition of human recombinant HDAC1 using Boc-Lys(acetyl)-AMC substrate incubated for 2 hrs by fluorescence based assay.
Data set [3] relates to HL-60. The data set is described as follows: Cell cycle arrest in human […] HL60 cells assessed as accumulation at G2/M-phase at 200 nM measured after 24 hrs realtive to control. Format: functional, cell-based.
Data set [4] deals with T1, Histone deacetylase 1. Briefly: Inhibition of HDAC1 (unknown origin)preincubated upto 2 hrs by fluorescence based assay. To be noted: time hrs <=2.
The subject of data set [5] is HL-60. The data set is described as follows: Cell cycle arrest in human […] HL60 cells assessed as accumulation at G2/M-phase at 500 nM measured after 24 hrs realtive to control. Format: functional, cell-based.
Data set [6] is described as follows: Drug distribution in BALB/c mouse heart measured at 4 mg/kg, po or ip after 0.5 hrs after 0.5 hrs. To be noted: in vivo. Format: ADME, organism-based.
Data set [7] is described as follows: Plasma concentration in BALB/c mouse xenografted with human AML MV4-11 cells at 4 mg/kg, ip. Format: ADME, organism-based. The following applies: in vivo. (In general: A xenograft is tissue or cells of one species grown in another, often human tumour cells in immunodeficient mice.)
In data set [8] the test system is MV4-11. The data set is described as follows: Induction of apoptosis in human wt-p53 MV4-11 cells assessed as apoptotic cells at 500 nM measured after 24 hrs by FITC Annexin V/propidium iodide staining based flow cytometry (reference value: 9.14%). The format is functional. In general terms: In flow cytometry, cells or beads pass a laser one at a time.
The nature of data set [9]: Antitumor activity against human MV4-11 cells xenografted in BALB/c mouse assessed as tumor growth inhibition at 2 to 4 mg/kg, po administered for 24 days. The format is functional. The following applies: dose 2-4 mg/kg, time 24 day.
Data set [10] has as its system MV4-11. The data set is described as follows: Antitumor activity against human MV4-11 cells xenografted in BALB/c mouse assessed as inhibition of tumor growth at single administration for 4 mg/kg, po incubated for 0.5 to 8 hrs. Format: functional, organism-based. The following applies: time 0.5-8 hrs.
The nature of data set [11]: Plasma concentration in BALB/c mouse xenografted with human AML MV4-11 cells at 4 mg/kg, po. Format: ADME, organism-based. To be noted: in vivo.
Data set [12] has as its system MV4-11. The data set is described as follows: Antitumor activity against human MV4-11 cells xenografted in balb/c mouse assessed as accumulation of AcHH4 protein level at 4 mg/kg, po measured after 2 hrs. The format is functional, organism-based.
A short description of data set [13]: Toxicity in BALB/c mouse assessed as induction of pathological changes in spleen by H and E staining based analysis. Format: tissue-based. The following applies: in vivo.
The nature of data set [14]: Oral bioavailability in CD-1 mouse at 20 mg/kg measured upto 24 hrs. Format: ADME, organism-based. The following applies: in vivo.
Data set [15] in a line: AUC (0 to infinity) in CD-1 mouse at 5 mg/kg, iv measured upto 24 hrs. The format is ADME, organism-based. On the set-up: route intravenous, dose 5 mg/kg, time <=24. The following applies: in vivo.
In data set [16] the test system is MV4-11. The data set is described as follows: Induction of apoptosis in human wt-p53 MV4-11 cells assessed as apoptotic cells at 200 nM measured after 24 hrs by FITC Annexin V/propidium iodide staining based flow cytometry (reference value: 9.14%). Format: functional.
Data set [17] is described as follows: Drug distribution in tumor of BALB/c mouse xenografted with human MV4-11 cells assessed as measured after 8 hrs. Format: ADME. To be noted: read-out: Drug uptake.
The nature of data set [18]: Drug distribution in tumor of BALB/c mouse xenografted with human MV4-11 cells assessed as measured after 0.5 hrs. The format is ADME. The following applies: read-out: Ct.
The nature of data set [19]: Drug distribution in BALB/c mouse spleen measured at 4 mg/kg, po or ip after 0.5 hrs. The format is ADME, organism-based. To be noted: in vivo.
A short description of data set [20]: Drug distribution in BALB/c mouse brain measured at 4 mg/kg, po or ip after 2 to 8 hrs after 0.5 hrs. Format: ADME, organism-based. To be noted: in vivo, time 2-8 hrs.
Data set [21] addresses T2, Histone deacetylase 3 (Homo sapiens, UniProt O15379). The data set is described as follows: Inhibition of HDAC3(unknown origin) preincubated upto 2 hrs by fluorescence based assay. The following applies: time hrs <=2.
Data set [22] can be described thus: Drug uptake in BALB/c mouse xenografted with human AML MV4-11 cells assessed as tumor tissue at 4mg/kg, po measured after 0.5 to 6 hrs by LC-MS/MS. The format is ADME, organism-based. The following applies: in vivo, time 0.5-6 hrs.
Data set [23] addresses T2, Histone deacetylase 3. Briefly: Inhibition of human recombinant HDAC3 using Boc-Lys(acetyl)-AMC substrate incubated for 2 hrs by fluorescence based assay.
For data set [24], the system named is HL-60. The data set is described as follows: Induction of apoptosis in human p53 null HL-60 cells assessed as […] at 200 nM measured after 24 hrs by FITC Annexin V/propidium iodide staining based flow cytometry (reference value: 20.55%). The format is functional. To be noted: read-out: Activity.
A short description of data set [25]: Drug distribution in BALB/c mouse lung measured at 4 mg/kg, po or ip after 2 to 8 hrs after 0.5 hrs. Format: ADME, organism-based. To be noted: in vivo, time 2-8 hrs.
A short description of data set [26]: Drug distribution in BALB/c mouse kidney measured at 4 mg/kg, po or ip after 0.5 hrs after 0.5 hrs. The following applies: in vivo. The format is ADME, organism-based.
Data set [27] has as its target T2, Histone deacetylase 3. Briefly: Non competitive type inhibition of human HDAC3 (unknown origin) by Lineweaver-Burk plot analysis.
Data set [28] in a line: Drug distribution in BALB/c mouse gut measured at 4 mg/kg, po or ip after 2 to 8 hrs after 0.5 hrs. Format: ADME, organism-based. The following applies: in vivo, time 2-8 hrs.
Data set [29] can be described thus: Toxicity in BALB/c mouse xenografted with MV4-11 cells assessed as body weight loss.
For data set [30], the target named is T1, Histone deacetylase 1. The data set is described as follows: Mixed type inhibition of human HDAC1 (unknown origin) by Lineweaver-Burk plot analysis.
Data set [31] can be described thus: Drug distribution in BALB/c mouse heart measured at 4 mg/kg, po or ip after 2 to 8 hrs after 0.5 hrs. Format: ADME, organism-based. The following applies: in vivo, time 2-8 hrs.
Data set [32] is described as follows: Drug distribution in BALB/c mouse spleen measured at 4 mg/kg, po or ip after 2 to 8 hrs after 0.5 hrs. Format: ADME, organism-based. The following applies: in vivo, time 2-8 hrs.
Data set [33] concerns MV4-11. The data set is described as follows: Antitumor activity against human MV4-11 cells xenografted in balb/c mouse assessed as accumulation of AcHH4 protein level at 4 mg/kg, po measured after 8 hrs. The format is functional, organism-based.
The nature of data set [34]: Drug distribution in BALB/c mouse gut measured at 4 mg/kg, po or ip after 0.5 hrs after 0.5 hrs. Format: ADME, organism-based. The following applies: in vivo.
A short description of data set [35]: Drug distribution in BALB/c mouse liver measured at 4 mg/kg, po or ip after 2 to 8 hrs after 0.5 hrs. The format is ADME, organism-based. The following applies: in vivo, time 2-8 hrs.
Data set [36] in a line: Drug distribution in BALB/c mouse lung measured at 4 mg/kg, po or ip after 0.5 hrs after 0.5 hrs. Format: ADME, organism-based. The following applies: in vivo.
Data set [37] is described as follows: Toxicity in BALB/c mouse assessed as induction of pathological changes in lung by H and E staining based analysis. The format is tissue-based. The following applies: in vivo.
Data set [38] deals with MV4-11. The data set is described as follows: Antitumor activity against human MV4-11 cells xenografted in balb/c mouse assessed as accumulation of AcHH3 protein level at 4 mg/kg, po measured after 2 hrs. The format is functional, organism-based.
The nature of data set [39]: Drug uptake in BALB/c mouse xenografted with human AML MV4-11 cells assessed as tumor tissue at 4 mg/kg ip measured after 0.5 to 6 hrs by LC-MS/MS. The format is ADME, organism-based. To be noted: in vivo, time 0.5-6 hrs.
The nature of data set [40]: Cmax in CD-1 mouse at 5 mg/kg, iv measured upto 24 hrs. The following applies: in vivo. The format is ADME, organism-based. The arrangement: route intravenous, dose 5 mg/kg, time <=24.
The nature of data set [41]: Antitumor activity against human MV4-11 cells xenografted in BALB/c mouse assessed as growth inhibition at 2 to 4 mg/kg, po ad. The format is functional. To be noted: dose 2-4 mg/kg, time 24 day.
The test system of data set [42] is MV4-11. The data set is described as follows: Down regulation of p21 expression in human MV4-11 cells at 200 nM measured after 24 hrs by Western blot analysis. The format is functional, cell-based. Background: A western blot detects proteins with antibodies after separation by electrophoresis.
Data set [43] has as its system MV4-11. The data set is described as follows: Cell cycle arrest in human […] MV4-11 cells assessed as accumulation at G2/M-phase at 500 nM measured after 24 hrs realtive to control. Format: functional, cell-based.

One may read the IC50 as the point on the concentration scale where inhibition reaches its midpoint. As usually defined, the TGI is the reduction of tumour growth relative to the control group. Usually AUC stands for concentration integrated over time. Lower therefore signals low exposure. As a reminder, the Cmax is the peak of the concentration-time curve. Broadly, the T/C is the ratio of treated to control.

Calls of active or inactive are those of the source. The calls are words filed in the database; no cut-off is given here.

T1 sequence (Q13547 whole entry): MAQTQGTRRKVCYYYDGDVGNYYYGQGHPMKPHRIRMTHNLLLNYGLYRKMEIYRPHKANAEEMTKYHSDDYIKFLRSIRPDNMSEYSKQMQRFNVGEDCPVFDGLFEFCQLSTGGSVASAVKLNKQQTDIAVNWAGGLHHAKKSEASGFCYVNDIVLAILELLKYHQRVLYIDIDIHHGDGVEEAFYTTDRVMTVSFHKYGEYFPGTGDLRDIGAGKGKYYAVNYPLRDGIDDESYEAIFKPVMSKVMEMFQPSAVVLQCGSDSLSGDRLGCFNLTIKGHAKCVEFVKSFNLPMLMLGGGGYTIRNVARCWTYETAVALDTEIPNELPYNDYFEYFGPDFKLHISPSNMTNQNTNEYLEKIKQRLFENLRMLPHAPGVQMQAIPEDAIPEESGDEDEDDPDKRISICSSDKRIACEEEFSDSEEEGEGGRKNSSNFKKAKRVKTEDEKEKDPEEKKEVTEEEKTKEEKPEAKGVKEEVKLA
T2 sequence (O15379 whole entry): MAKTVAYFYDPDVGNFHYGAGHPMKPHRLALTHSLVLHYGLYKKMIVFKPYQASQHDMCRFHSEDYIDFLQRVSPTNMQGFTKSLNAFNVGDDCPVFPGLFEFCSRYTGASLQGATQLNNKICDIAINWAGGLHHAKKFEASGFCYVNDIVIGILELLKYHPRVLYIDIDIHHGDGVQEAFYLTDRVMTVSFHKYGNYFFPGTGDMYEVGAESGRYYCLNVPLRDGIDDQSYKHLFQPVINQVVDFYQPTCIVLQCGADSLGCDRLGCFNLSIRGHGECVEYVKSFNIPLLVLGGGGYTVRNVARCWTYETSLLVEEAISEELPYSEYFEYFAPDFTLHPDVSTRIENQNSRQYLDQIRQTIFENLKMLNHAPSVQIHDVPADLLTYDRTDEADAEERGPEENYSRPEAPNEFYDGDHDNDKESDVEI

In [1], `CCCNNC(=O)c1ccc(CNC(=O)/C=C/c2ccccc2)cc1` showed an IC50 of 36.4 nM.
Take `CCCNNC(=O)c1ccc(CNC(=O)c2cc3ccccc3[nH]2)cc1`: the IC50 in data set [2] came to 3.01 nM; in data set [23] it was 0.44 nM; in data set [27], 0.56 nM; in data set [30], 1.5 nM. The result in [3], in data set [4], in [5], in [10], in data set [12] and in [21] was Active. Also, the result in [33], in [38], in data set [42] and in [43] was Active. Moreover, the Drug uptake entry in [6], in data set [7], in data set [11], in data set [19], in data set [20] and in [22] was “Active” each time. The Drug uptake result in data set [25], in data set [26], in data set [28], in data set [31], in [32] and in data set [34] was “Active” each time. In addition, the Drug uptake result in data set [35], in data set [36] and in data set [39] was “Active” throughout. For the same compound, the Activity was 88.1% in [8]; “Non-Toxic” in [13]; 71.2% in data set [16]; “Non-Toxic” in data set [29]; “Non-Toxic” in [37]. Moreover, the inhibition of tumour growth (TGI) in data set [9] was determined as 78.9%. The compound further displayed a F in data set [14] of 112%. For the same compound, in data set [15], the AUC was found to be 32179 ng·h/mL. Also, the concentration at 8 h in data set [17] stood at 151 ng/g. Also, the concentration at 0.5 h in data set [18] worked out at 1130 ng/g. Also, the viability at 0.2 µM in [24] came out at 32.6%. This compound showed a Cmax in [40] of 21600 ng/mL. Further, in data set [41], the T/C was determined as 22.2%.
